Measured values reported in patent US20170008888A1 (KYORIN PHARMACEUTICAL CO., LTD., priority 2014, published 2017).
Where two headings read alike, the source gives them in different places. Each block holds one compound with its values, some of them ahead of it.

How the values were obtained:
Assay type in all cases: binding
ERK5 = target: T1, ERK5 (Homo sapiens, UniProt Q13164); experiment: Probe-based (AX9989 acyl phosphate ATP probe) kinase profiling in Jurkat lysate: ERK5; conditions: for IC50: Jurkat lysate; for inhibition at 0.1 µM: screening concentration 0.1 μM
T1 construct: screened for activity against several kinases in Jurkat cells; endogenous in cells; host or cells: Jurkat cell lysate
T1 sequence (Q13164 whole entry): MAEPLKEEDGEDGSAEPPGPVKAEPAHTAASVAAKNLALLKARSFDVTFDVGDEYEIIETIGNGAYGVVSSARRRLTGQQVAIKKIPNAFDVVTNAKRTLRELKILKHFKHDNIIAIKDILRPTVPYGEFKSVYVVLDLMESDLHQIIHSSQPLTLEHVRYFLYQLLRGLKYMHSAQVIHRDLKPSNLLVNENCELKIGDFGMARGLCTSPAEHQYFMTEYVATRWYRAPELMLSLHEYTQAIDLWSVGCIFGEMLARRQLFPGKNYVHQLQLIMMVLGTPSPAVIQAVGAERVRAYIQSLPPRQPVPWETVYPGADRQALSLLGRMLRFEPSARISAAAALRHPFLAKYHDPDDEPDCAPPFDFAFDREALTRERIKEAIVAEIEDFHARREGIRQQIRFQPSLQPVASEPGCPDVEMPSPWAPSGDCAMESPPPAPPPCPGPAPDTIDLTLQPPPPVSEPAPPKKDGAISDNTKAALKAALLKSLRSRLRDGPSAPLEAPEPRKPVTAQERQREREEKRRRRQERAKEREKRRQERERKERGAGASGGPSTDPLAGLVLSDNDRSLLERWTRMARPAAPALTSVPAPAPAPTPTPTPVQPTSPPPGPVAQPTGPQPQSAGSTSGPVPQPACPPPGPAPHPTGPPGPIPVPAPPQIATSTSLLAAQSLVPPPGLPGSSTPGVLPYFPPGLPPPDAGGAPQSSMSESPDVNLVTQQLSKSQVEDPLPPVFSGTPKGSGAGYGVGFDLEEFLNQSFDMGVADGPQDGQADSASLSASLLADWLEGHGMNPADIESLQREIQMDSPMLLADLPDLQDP
Summary of the method: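 Gel-filtered Jurkat lysate (5 mg/ml, 20 mM MnCl2) preincubated 15 min at room temperature with compound, then labelled with 5 μM AX9989 acyl phosphate ATP probe. Probe-labelled ERK5 active-site peptides quantified by LC/MS after trypsin digestion and streptavidin capture; IC50 calculated from percent inhibition at the screening concentration.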

JAK1 = target: T2, JAK1 (Homo sapiens, UniProt P23458); experiment: Probe-based (AX9989) kinase profiling in Jurkat lysate: JAK1; conditions: for inhibition at 0.1 µM: screening concentration 0.1 μM
T2 construct: screened for activity against several kinases in Jurkat cells; endogenous in cells; host or cells: Jurkat cell lysate
T2 sequence (P23458 whole entry): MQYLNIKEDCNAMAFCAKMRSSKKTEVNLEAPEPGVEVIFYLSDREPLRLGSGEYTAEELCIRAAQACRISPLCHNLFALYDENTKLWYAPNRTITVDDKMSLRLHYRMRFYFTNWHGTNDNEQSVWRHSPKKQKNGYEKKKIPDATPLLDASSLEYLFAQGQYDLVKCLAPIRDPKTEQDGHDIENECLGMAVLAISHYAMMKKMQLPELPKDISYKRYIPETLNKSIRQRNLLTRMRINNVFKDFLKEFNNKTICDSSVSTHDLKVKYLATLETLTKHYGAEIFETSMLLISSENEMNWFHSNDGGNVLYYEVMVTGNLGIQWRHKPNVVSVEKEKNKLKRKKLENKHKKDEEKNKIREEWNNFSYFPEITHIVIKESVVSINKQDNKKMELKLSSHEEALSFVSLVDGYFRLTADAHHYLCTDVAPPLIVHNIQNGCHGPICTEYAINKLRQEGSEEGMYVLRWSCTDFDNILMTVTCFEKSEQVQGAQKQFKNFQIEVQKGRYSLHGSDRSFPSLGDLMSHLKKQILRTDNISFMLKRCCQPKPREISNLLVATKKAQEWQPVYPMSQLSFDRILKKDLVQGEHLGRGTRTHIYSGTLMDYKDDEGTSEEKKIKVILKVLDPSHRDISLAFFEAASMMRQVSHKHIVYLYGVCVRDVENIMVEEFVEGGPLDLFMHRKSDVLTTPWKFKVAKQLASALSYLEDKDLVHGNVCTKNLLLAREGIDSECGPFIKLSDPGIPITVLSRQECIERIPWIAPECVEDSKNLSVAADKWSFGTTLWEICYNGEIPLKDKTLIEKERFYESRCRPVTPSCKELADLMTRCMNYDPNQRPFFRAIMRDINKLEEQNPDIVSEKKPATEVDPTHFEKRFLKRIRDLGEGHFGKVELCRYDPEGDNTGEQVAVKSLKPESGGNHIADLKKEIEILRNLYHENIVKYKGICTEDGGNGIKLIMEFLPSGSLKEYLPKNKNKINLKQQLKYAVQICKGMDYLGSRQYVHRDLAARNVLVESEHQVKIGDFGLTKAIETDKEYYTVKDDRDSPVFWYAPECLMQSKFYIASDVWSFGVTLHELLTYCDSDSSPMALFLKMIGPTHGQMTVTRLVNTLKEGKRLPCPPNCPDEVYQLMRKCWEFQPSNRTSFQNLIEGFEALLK
Summary of the method: (§1)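 Gel-filtered Jurkat lysate (HEPES pH 7.5, 20 mM MnCl2, 5 mg/ml) was pre-incubated 15 min with compound at room temperature, then labelled with 5 μM acyl-phosphate ATP probe AX9989. Tryptic probe-labelled active-site peptides were streptavidin-captured and quantified by LC/MS. Percent inhibition reflected the decrease in labelled-peptide intensity versus no compound.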

ABL or ARG = experiment: Probe-based (AX9989) kinase profiling in Jurkat lysate: ABL or ARG
Summary of the method: as §1

AMPKa1 or AMPKa2 = experiment: Probe-based (AX9989) kinase profiling in Jurkat lysate: AMPKa1 or AMPKa2
Summary of the method: as §1

TAO2 = target: T3, TAO2 (Homo sapiens, UniProt Q9UL54); experiment: Probe-based (AX9989) kinase profiling in Jurkat lysate: TAO2; conditions: for inhibition at 0.1 µM: screening concentration 0.1 μM
T3 construct: screened for activity against several kinases in Jurkat cells; endogenous in cells; host or cells: Jurkat cell lysate
T3 sequence (Q9UL54 1-1235): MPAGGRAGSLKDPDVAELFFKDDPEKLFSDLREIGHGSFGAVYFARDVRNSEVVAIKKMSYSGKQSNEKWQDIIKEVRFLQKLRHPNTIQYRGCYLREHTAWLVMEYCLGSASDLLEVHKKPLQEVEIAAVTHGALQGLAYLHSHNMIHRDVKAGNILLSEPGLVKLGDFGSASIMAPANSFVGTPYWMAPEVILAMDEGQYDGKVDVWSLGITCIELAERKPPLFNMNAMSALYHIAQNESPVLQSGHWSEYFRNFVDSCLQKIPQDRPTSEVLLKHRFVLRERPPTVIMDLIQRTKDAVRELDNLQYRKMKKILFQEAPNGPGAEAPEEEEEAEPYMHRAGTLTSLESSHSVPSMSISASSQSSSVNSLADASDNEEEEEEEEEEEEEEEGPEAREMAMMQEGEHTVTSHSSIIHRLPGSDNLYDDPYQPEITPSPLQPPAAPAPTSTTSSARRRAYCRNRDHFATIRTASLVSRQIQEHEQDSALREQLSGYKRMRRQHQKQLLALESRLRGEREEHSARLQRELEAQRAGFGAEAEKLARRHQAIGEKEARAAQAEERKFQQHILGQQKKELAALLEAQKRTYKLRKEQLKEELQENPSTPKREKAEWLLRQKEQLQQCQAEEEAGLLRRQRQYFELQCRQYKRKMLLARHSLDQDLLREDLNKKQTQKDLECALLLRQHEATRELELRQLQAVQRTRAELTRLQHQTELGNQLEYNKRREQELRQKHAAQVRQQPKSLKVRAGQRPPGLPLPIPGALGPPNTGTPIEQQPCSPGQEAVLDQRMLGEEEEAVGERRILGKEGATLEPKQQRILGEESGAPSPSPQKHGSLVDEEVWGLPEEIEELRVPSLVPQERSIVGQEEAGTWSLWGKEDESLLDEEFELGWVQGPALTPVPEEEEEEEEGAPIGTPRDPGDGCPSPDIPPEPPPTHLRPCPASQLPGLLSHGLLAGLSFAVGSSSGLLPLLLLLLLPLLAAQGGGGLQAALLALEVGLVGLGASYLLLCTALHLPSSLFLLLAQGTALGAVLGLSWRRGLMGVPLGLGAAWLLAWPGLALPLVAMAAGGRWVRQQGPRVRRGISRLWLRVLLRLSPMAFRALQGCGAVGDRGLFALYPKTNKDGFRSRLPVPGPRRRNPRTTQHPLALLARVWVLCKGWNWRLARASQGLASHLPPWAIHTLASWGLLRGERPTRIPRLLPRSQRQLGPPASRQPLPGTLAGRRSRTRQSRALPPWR
Summary of the method: as §1

AurA = target: T4, AurA (Homo sapiens, UniProt O14965); experiment: Probe-based (AX9989) kinase profiling in Jurkat lysate: AurA; conditions: for inhibition at 0.1 µM: screening concentration 0.1 μM
T4 construct: screened for activity against several kinases in Jurkat cells; endogenous in cells; host or cells: Jurkat cell lysate
T4 sequence (O14965 1-403): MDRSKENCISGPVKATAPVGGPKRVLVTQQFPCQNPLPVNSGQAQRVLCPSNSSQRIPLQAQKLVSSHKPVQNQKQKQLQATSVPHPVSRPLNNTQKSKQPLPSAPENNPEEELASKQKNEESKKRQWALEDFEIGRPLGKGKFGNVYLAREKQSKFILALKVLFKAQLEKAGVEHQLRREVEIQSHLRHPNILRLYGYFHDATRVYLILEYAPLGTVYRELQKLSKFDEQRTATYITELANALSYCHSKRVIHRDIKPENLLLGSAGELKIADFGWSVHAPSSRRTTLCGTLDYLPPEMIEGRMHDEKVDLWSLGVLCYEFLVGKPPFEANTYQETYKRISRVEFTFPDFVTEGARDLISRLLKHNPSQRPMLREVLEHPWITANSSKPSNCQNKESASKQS
Summary of the method: as §1

[1] = calculated from percent inhibition of AX9989 labeling and the screening concentration
[2] = screening concentration 1.0 μM, read-out: Kinase inhibition % at indicated screening concentration: ERK5
[3] = screening concentration 1.0 μM, read-out: Kinase inhibition % at indicated screening concentration: JAK1
[4] = screening concentration 1.0 μM, read-out: Kinase inhibition % at indicated screening concentration: TAO2
[5] = screening concentration 1.0 μM, read-out: Kinase inhibition % at indicated screening concentration: AurA
[6] = screening concentration 10.0 μM
[7] = read-out: Kinase inhibition % at indicated screening concentration: ERK5
[8] = read-out: Kinase inhibition % at indicated screening concentration: JAK1
[9] = read-out: Kinase inhibition % at indicated screening concentration: TAO2
[10] = read-out: Kinase inhibition % at indicated screening concentration: AurA

SMILES: CCOc1cc(C(=O)NC2CCOCC2)ccc1Nc1cc2c(cn1)N(C)C(=O)c1ccccc1N2C [Compound 80]
IC50 (ERK5; [1]): 101 to 500 nM
inhibition at 1 µM (ERK5; [2]): 50 to 75%
inhibition at 1 µM (JAK1; [3]): ≤ 35%
Kinase inhibition % at indicated screening concentration: ABL or ARG (ABL or ARG; screening concentration 1.0 μM): E (E is ≦35%)
Kinase inhibition % at indicated screening concentration: AMPKa1 or AMPKa2 (AMPKa1 or AMPKa2; screening concentration 1.0 μM): E (E is ≦35%)
inhibition at 1 µM (TAO2; [4]): ≤ 35%
inhibition at 1 µM (AurA; [5]): ≤ 35%

SMILES: CCOc1cc(C(=O)N2CCN(c3cccnc3)CC2)ccc1Nc1cc2c(cn1)N(C)C(=O)c1occc1N2C [Compound T56]
IC50 (ERK5; calculated from percent inhibition and screening concentration, AX9989 probe): ≤ 50 nM
inhibition at 1 µM (ERK5; screening concentration 1 μM, read-out: ERK5 Inhibition % at indicated screening concentration): > 90%
inhibition at 1 µM (JAK1; screening concentration 1 μM, read-out: JAK1 Inhibition % at indicated screening concentration): ≤ 35%
ABL or ARG Inhibition % at indicated screening concentration (ABL or ARG; screening concentration 1 μM): E (E is ≦35%)
AMPKa1 or AMPKa2 Inhibition % at indicated screening concentration (AMPKa1 or AMPKa2; screening concentration 1 μM): E (E is ≦35%)
inhibition at 1 µM (TAO2; screening concentration 1 μM, read-out: TAO2 Inhibition % at indicated screening concentration): ≤ 35%
inhibition at 1 µM (AurA; screening concentration 1 μM, read-out: AurA Inhibition % at indicated screening concentration): ≤ 35%

SMILES: CN1C(=O)c2ccccc2N(C)c2cc(N[C@H]3CC[C@H](N4CCCC4)CC3)ncc21 [Compound 74]
IC50 (ERK5; [1]): 101 to 500 nM
inhibition at 1 µM (ERK5; [2]): 50 to 75%
inhibition at 1 µM (JAK1; [3]): ≤ 35%
Kinase inhibition % at indicated screening concentration: ABL or ARG (ABL or ARG; screening concentration 1.0 μM): E (E is ≦35%)
Kinase inhibition % at indicated screening concentration: AMPKa1 or AMPKa2 (AMPKa1 or AMPKa2; screening concentration 1.0 μM): E (E is ≦35%)
inhibition at 1 µM (TAO2; [4]): ≤ 35%
inhibition at 1 µM (AurA; [5]): ≤ 35%

Next, values leading:

IC50 (ERK5; [1]): 101 to 500 nM
inhibition at 1 µM (ERK5; [2]): 50 to 75%
inhibition at 1 µM (JAK1; [3]): ≤ 35%
Kinase inhibition % at indicated screening concentration: ABL or ARG (ABL or ARG; screening concentration 1.0 μM): E (E is ≦35%)
Kinase inhibition % at indicated screening concentration: AMPKa1 or AMPKa2 (AMPKa1 or AMPKa2; screening concentration 1.0 μM): E (E is ≦35%)
inhibition at 1 µM (TAO2; [4]): ≤ 35%
inhibition at 1 µM (AurA; [5]): ≤ 35%
SMILES: CCOc1cc(C(=O)N[C@@H]2CCCOC2)ccc1Nc1cc2c(cn1)N(C)C(=O)c1ccccc1N2C [Compound 69]

IC50 (ERK5; [1]): ≤ 50 nM
inhibition at 10 µM (ERK5; screening concentration 10.0 μM, read-out: Kinase inhibition % at indicated screening concentration: ERK5): > 90%
inhibition at 10 µM (JAK1; screening concentration 10.0 μM, read-out: Kinase inhibition % at indicated screening concentration: JAK1): ≤ 35%
Kinase inhibition % at indicated screening concentration: ABL or ARG (ABL or ARG; [6]): E (E is ≦35%)
Kinase inhibition % at indicated screening concentration: AMPKa1 or AMPKa2 (AMPKa1 or AMPKa2; [6]): E (E is ≦35%)
inhibition at 10 µM (TAO2; screening concentration 10.0 μM, read-out: Kinase inhibition % at indicated screening concentration: TAO2): 50 to 75%
inhibition at 10 µM (AurA; screening concentration 10.0 μM, read-out: Kinase inhibition % at indicated screening concentration: AurA): 35 to 50%
SMILES: CN1C(=O)c2ccccc2N(C)c2cc(Nc3ccc(C(=O)N4CC[C@@H](N(C)C)C4)cc3F)ncc21 [Compound 110]

IC50 (ERK5; [1]): ≤ 50 nM
inhibition at 0.1 µM (ERK5; [7]): 75 to 90%
inhibition at 0.1 µM (JAK1; [8]): ≤ 35%
Kinase inhibition % at indicated screening concentration: ABL or ARG (ABL or ARG; screening concentration 0.1 μM): E (E is ≦35%)
Kinase inhibition % at indicated screening concentration: AMPKa1 or AMPKa2 (AMPKa1 or AMPKa2; screening concentration 0.1 μM): E (E is ≦35%)
inhibition at 0.1 µM (TAO2; [9]): ≤ 35%
inhibition at 0.1 µM (AurA; [10]): ≤ 35%
SMILES: CCOc1cc(C(=O)N2CCNC[C@H]2C)ccc1Nc1cc2c(cn1)N(C)C(=O)c1ccccc1N2C [Compound 82]

IC50 (ERK5; [1]): ≤ 50 nM
inhibition at 0.1 µM (ERK5; [7]): 50 to 75%
inhibition at 0.1 µM (JAK1; [8]): ≤ 35%
Kinase inhibition % at indicated screening concentration: ABL or ARG (ABL or ARG; screening concentration 0.1 μM): E (E is ≦35%)
Kinase inhibition % at indicated screening concentration: AMPKa1 or AMPKa2 (AMPKa1 or AMPKa2; screening concentration 0.1 μM): E (E is ≦35%)
inhibition at 0.1 µM (TAO2; [9]): ≤ 35%
inhibition at 0.1 µM (AurA; [10]): ≤ 35%
SMILES: CCOc1cc(C(=O)NCCN(C(C)C)C(C)C)ccc1Nc1cc2c(cn1)N(C)C(=O)c1ccccc1N2C [Compound 55]
